# Test results from patent US20140271573A1, “PHARMACO-CELLULAR THERAPEUTIC METHOD FOR THE TREATMENT OF MUSCULAR DYSTROPHIES” (PONTIFICIA UNIVERSIDAD CATÓLICA DE CHILE, priority 2013, published 2014).
# Key:
# Format in all cases: in vivo, mouse
# mdx mice [1] = assay: Evans blue dye uptake in tibialis anterior muscle fibers of mdx mice; conditions: exercised mdx mice, 1 mg/kg i.p. 3 times per week for 3 months
# Method: FIG. 4. Andrographolide reduced skeletal muscle damage in mdx mice. To augment the extent of muscle fibrosis, 3 months old mdx mice were subjected to an exercise protocol for 3 months. Along this period one group was treated with 1 mg/kg andrographolide or vehicle (i.p. injections 3 time per week, 6 animal per group). […] B) Evans blue dye uptake in tibialis anterior muscle fibers from wild-type (WT), Vehicle-treated mdx and andrographolide-treated mdx mice. Nuclei were labeled with Hoechst. Mice were injected i.p. with 1% Evans blue dye 24 hours before muscle fixation. Bar corresponds to 200 μm. […] Values are expressed as mean±SD of three independent experiments, using eight mice for each experimental condition. (*, P<0.05 relative to WT mice; #, P<0.05 relative to Vehicle-treated mdx mice).
# (§1) Control or mdx (12 weeks old) male mice of C57BL/10 ScSn strain were studied. The animals were kept at room temperature with a […] night-day cycle and fed with pellets and water ad libitum. Experimental exercise was performed for running the mice in a treadmill for three times per week, 30 minutes each time at 12 m/min during 3 or 4 months (De Luca et al., 2005; De Luca et al., 2003). […]
# Animals were injected with Evans Blue dye (1% in PBS) and allowed to stay for 24 hours. […] The percentage of Evans blue dye positive fibers was manually counted in a blinded manner (Straub et al., 1997).
# mdx mice [2] = assay: Satellite cell graft into tibialis anterior of andrographolide pre-treated mdx mice
# Method: FIG. 8. Muscle stem cell therapy with satellite cells is improved by reducing the muscle fibrosis by the treatment with andrographolide. A) 3 months old mdx mice were subjected to an exercise protocol for 4 months to augment the extent of muscle fibrosis. During this period one group was treated with andrographolide or vehicle (i.p. injections 3 time per week, 6 animal per group). 1 week after the last drug administration (7 month old mice), 500 freshly isolated satellite cells (SC) purified from WT mice were transplanted in both tibialis anterior muscle of each mdx mouse. 4 weeks after the engraftment the number of fibers expressing dystrophin and collagen I were determined by immunofluorescence on cryosections. The images are representative of 2 experimental group with 6 mice per group. B) Quantification of the data obtained in A showing the number of myofibers expressing dystrophin per tibialis anterior muscle in each case. C) The number of satellite cells (PAX-7 positive nuclei) were determined on isolated single muscle fibers from extensor digitoriumlongus muscle (EDL) in each case as indicative of the endogenous SC survival.
# The isolation of single myofibers were prepared essentially as described (Kelly et al., 1995, Collins 2005), briefly extensor digitorium (EDL) and soleus muscles from 6 weeks old C57-BL10 mice were dissected and digested in 0.2% (w/v) collagenase type 1 (Sigma) in DMEM (Gibco) 4 mM L-glutathatmine (Sigma) and 1% penicillin and streptomycin solution (Sigma) for […] in a 37° C. water bath. After gentle muscle trituration only single and stretched myofibers were collected in DMEM. The myofibers were washed by serial transfers in 4 dishes (pre-coated with horse serum to prevent myofiber attachment) containing DMEM. The myofibers were finally collected in DMEM containing 10% FBS, 10% horse serum, 0.5% chick embryo extract and 5 ng/ml of FGF-2 (R&D) and cultured for 30 min in a 5% CO2 cell culture incubator.
# Satellite cells were separated from the myofibers by physical trituration using the method of Collins et al (2005). Briefly, the isolated intact fibers were suspended in 10 ml of complete medium and triturated with a 19 G needle mounted on a 1 ml syringe. The suspension was sequentially passed through a 70 um and 40 um cell sieve (Falcon) to remove debris. The satellite cell suspension was centrifuged for 15 min at 450 RCF. The pellet was resuspended in physiologic serum (NaCl 0.9%). An aliquot was stained with Hoechst 1 ug/ml and cholera toxin sub unit B conjugated to Alexa Fluor 488 (Invitrogen) 1 ug/ml for 5 minutes, washed with PBS and incubated with trypan blue. The double stained cells that exclude the trypan blue were counted in a hemocytometer as viable cells. The concentration of cells was adjusted to 25 cell/μl. […]
# CTGF = CTGF mRNA levels in tibialis anterior muscle of exercised mdx mice, RT-qPCR; conditions: 1 mg/kg i.p. 3 times per week for 3 months, vs vehicle
# Method: FIG. 3. Andrographolide modulates CTGF action in vivo. A) To augment the extent of muscle fibrosis, 3 months old mdx mice were subjected to an exercise protocol for 3 months. Along this period one group was treated with 1 mg/kg andrographolide or vehicle (i.p. injections 3 time per week, 4 animal per group). CTGF mRNA levels, a downstream TGF-β1 pro-fibrotic mediator) were determined in tibialis anterior muscle from Wild type (WT), Vehicle-Treated mdx and andrographolide-treated mdx mice by RT-qPCR using GAPDH as reference gene. Values correspond to the mean of dCT value±SD of three independent experiments, using four mice for each experimental condition and normalized to WT levels (*, P<0.05 relative to WT mice; #, P<0.05 relative to Vehicle-treated mdx mice). B) Detection of macrophages (F4/80 positive cells) through immunohistochemistry analysis in cryosections of tibialis anterior muscle from andrographolide-treated WT mice that overexpress CTGF by adenovirus (adv CTGF) infection.
# as §1
smiles,measurement,setting,value
C=C1CC[C@@H]2[C@](C)(CO)[C@H](O)CC[C@@]2(C)[C@@H]1C/C=C1/C(=O)OC[C@H]1O [andrographolide],Evans blue dye uptake in muscle fibers,mdx mice [1],lower Evans blue dye uptake
same,increase in number of dystrophin positive fibers compared to controls,"mdx mice [2]; mdx mice pre-treated with andrographolide, 500 WT satellite cells grafted per tibialis anterior, one month after transplantation",3 times
same,collagen-I content after satellite cell transplantation,"mdx mice [2]; mdx mice pre-treated with andrographolide, one month after transplantation, immunofluorescence",clear reduction
same,change in number of satellite cells present on isolated EDL myofibers,"mdx mice [2]; same transplanted mdx mice, PAX-7 positive nuclei, endogenous satellite cells",no changes
same,mean satellite cells per EDL myofiber,"mdx mice [2]; same transplanted mdx mice, no change between treated and untreated",12.5 satellite cells per EDL myofiber
same,CTGF expression (mRNA) in mdx mice,CTGF,reduced
